Values of other authors as cited in patent US8545882B2, “Control release formulation containing a hydrophobic material as the sustained release agent” (Nostrum Pharmaceuticals, Inc., priority 2001, dated 2013).
Read-outs that look alike come from different tables or passages of the source.

How the values were obtained:
[1] = granules 200-315 microns, any of three polymers at 10 or 20% by weight
[2] = 40% by weight glycerol palmitostearate, wet granulation, after 20 minutes
[3] = water

SMILES: CC(C)Cc1ccc(C(C)C(=O)O)cc1 (stereo not shown) [ibuprofen]
- time in which the drug was released completely [1]: ≤ 30 min

SMILES: O=C([O-])c1ccccc1O.[Na+] [sodium salicylate]
- drug released in water [2]: 50%

SMILES: Cn1c(=O)c2[nH]cnc2n(C)c1=O [theophylline]
- theophylline released ([3]; 2% (w/w) wax coating, within one hour): 85%
- theophylline released ([3]; 6% wax coating, in 5 minutes): 35%
- theophylline released ([3]; 6% wax coating, within the first hour): 55%
- theophylline released ([3]; 10% (w/w) wax coating, in 5 minutes): 28%
- theophylline released ([3]; 10% (w/w) wax coating, within the first hour): 38%
